The source of these data is patent US10077261B2, “Imidazolin-5-one derivative useful as FASN inhibitors for the treatment of cancer” (Janssen Pharmaceutica NV, priority 2012, dated 2018).

In experiment [1] the test system is A2780 ovarian cells. The experiment is described as follows: A2780 ovarian cell proliferation assay in lipid reduced medium, without palmitate (MTT). The following applies: Homo sapiens, A2780, 96 h; read-out: pIC50 A2780 Ovarian Cell, Without Palmitate (converted). The class given is cell-based. The protocol:
(§1) The biological assays described below correspond to comparative assays for ovarian cell proliferation. […] Compounds active in the absence of palmitate would not be expected to be active in the control.
(§2) 2500 cells were seeded in a 96-well clear well plate in 200 μL RPMI1640 with 10% Fetal Calf Serum (Hyclone), and incubated at 37° C., 5% CO2. Blanks were wells without cells. The next day the culture medium was aspirated and replaced by 160 μL culture medium with 10% Lipid-Reduced Serum (LRS, Hyclone). 20 μL test compound (at concentrations of 30 μM, 10 μM, 3 μM, 1 μM, 0.30 μM, 0.10 μM, 0.03 μM and 0.01 μM)/DMSO dilution followed by 20 μL ethanol-BSA solution were added to a final concentrations of 0.2% DMSO, 0.2% fatty-acid-free BSA, 0.25% ethanol. After 96 h incubation an MTT assay was performed. The absorbance was measured at 544 nm on a SPECTRAMAX brand microplate reader (Molecular Devices).
where mLC and mHC were the means of the low control wells and high control wells on the plate, after manual exclusion of outliers. A plot of Controlmin versus test compound concentration was fitted to a 4-parameter logistic curve using a non-linear least squares regression method.
(§3) Representative compounds of the present invention were tested according to the procedure as described in Biological Example 3 above, with results as listed in Table 8, below.

Experiment [2] concerns the target T1, hFASN enzyme (full length) (Homo sapiens, UniProt P49327).
T1 construct: 10 μL hFASN enzyme (full length, 300 ng, purified in house); made in house
Put plainly: Fatty Acid Synthase (FASN) inhibition scintillation proximity assay. The class given is biochemical. The following applies: for inhibition at 10 µM: read-out: Human FASN % inhibition @ 10 μM, 10 μM test compound; for IC50: read-out: Human FASN pIC50 (converted). In a few lines:
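Compounds at 0.01–30 μM were mixed with 300 ng purified full-length enzyme in 100 mM KH2PO4 pH 7.5, 1 mM DTT. Substrates ³H-acetyl-CoA and malonyl-CoA were then converted, and bead addition stopped the reaction. Signal was normalised to low and high plate controls and fitted by 4-parameter nonlinear regression.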
(SPA uses beads or plates that emit light when radiolabelled molecules are held near them.)

In experiment [3] the test system is A2780 ovarian cells. Put plainly: A2780 ovarian cell proliferation assay in lipid reduced medium, with palmitate (MTT). It counts as cell-based. The following applies: Homo sapiens, A2780, 96 h; read-out: pIC50 A2780 Ovarian Cell, With Palmitate (converted). How it is done: as §1
as §2, with “palmitate-BSA” for “ethanol-BSA”, “DMSO, 25 μM palmitate (Sigma, P0500, 10 mM stock solution in ethanol)” for “DMSO,”, “incubation,” for “incubation”
A best fit curve was fitted by a minimum sum of squares method, plotting Controlmin versus test compound concentration.
as §3

In general, inhibition refers to the relative decrease from the control value, in per cent.

The structures appear in SMILES notation.

T1 sequence (P49327 whole entry): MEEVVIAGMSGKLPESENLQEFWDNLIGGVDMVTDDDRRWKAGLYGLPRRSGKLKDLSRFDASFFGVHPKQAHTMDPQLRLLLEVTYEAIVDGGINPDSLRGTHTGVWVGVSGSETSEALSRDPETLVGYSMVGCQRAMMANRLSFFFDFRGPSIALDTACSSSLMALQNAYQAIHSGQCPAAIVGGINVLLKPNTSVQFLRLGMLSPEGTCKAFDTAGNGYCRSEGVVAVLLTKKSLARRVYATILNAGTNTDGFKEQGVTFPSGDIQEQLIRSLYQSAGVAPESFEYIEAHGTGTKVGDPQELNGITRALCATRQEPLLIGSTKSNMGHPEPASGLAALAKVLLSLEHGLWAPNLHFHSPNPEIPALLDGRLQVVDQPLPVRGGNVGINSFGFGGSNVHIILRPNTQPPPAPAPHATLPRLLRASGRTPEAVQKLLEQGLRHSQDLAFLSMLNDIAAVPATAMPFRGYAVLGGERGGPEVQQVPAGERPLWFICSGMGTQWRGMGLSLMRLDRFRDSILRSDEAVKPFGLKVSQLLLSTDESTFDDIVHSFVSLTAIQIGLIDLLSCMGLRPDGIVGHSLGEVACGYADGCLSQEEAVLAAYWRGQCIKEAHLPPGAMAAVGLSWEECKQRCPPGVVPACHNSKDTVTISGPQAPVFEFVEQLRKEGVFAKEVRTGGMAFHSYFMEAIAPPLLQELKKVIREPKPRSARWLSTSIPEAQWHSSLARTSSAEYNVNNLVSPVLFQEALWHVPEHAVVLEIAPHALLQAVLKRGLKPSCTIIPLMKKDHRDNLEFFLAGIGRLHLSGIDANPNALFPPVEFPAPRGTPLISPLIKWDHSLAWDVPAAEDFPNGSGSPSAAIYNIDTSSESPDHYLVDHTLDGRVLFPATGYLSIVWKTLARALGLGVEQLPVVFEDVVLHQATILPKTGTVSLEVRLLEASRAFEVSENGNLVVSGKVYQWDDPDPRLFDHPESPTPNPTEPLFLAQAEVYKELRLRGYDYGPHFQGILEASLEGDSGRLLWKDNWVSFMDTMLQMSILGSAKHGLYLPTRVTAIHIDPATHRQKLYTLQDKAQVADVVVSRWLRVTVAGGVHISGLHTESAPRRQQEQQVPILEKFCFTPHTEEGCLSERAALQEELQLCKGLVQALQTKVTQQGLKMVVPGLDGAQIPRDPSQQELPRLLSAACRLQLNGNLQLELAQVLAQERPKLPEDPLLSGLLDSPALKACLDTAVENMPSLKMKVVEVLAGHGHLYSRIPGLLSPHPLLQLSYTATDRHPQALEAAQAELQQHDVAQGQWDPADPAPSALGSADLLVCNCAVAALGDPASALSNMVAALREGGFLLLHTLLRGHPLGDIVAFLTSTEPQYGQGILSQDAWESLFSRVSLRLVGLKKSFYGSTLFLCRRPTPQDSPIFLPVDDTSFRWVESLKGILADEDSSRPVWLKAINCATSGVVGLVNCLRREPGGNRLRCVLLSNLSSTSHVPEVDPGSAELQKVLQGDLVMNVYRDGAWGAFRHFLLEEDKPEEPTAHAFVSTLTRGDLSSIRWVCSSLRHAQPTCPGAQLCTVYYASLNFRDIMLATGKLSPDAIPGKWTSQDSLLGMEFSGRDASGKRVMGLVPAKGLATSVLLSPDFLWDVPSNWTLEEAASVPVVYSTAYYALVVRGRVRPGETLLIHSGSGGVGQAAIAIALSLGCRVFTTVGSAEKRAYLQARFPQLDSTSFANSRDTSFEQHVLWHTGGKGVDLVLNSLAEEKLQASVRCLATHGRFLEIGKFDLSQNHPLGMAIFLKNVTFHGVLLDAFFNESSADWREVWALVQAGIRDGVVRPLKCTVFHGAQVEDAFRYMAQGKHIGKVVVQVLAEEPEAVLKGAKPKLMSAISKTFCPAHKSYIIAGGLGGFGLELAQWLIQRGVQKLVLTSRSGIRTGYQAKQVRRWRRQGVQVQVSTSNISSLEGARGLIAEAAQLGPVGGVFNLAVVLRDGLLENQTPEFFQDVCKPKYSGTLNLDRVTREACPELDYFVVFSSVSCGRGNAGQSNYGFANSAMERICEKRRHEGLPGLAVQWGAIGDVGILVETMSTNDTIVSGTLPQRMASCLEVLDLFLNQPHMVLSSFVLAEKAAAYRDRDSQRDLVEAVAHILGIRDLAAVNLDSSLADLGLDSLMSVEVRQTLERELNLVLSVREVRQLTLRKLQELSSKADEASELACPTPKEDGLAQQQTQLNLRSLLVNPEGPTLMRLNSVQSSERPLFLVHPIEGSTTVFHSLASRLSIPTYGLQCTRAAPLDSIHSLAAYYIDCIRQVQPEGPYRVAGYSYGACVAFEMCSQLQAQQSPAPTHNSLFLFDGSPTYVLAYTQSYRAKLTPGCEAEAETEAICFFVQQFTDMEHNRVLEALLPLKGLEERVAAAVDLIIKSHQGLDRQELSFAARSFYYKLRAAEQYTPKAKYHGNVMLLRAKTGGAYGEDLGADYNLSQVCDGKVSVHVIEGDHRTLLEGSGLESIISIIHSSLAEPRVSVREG

Turning to `O=C(C1CC1)N1CC[C@@H](CN2C(=O)C3(CC3)N=C2c2ccc(-c3ccc(O)cc3)cc2)C1` [compound 64, 6-{[(3R)-1-(Cyclopropylcarbonyl)pyrrolidin-3-yl]methyl}-5-(4′-hydroxybiphenyl-4-yl)-4,6-diazaspiro[2.4]hept-4-en-7-one], the results for the IC50 (in the experiment with A2780 ovarian cells [1]; in experiment [2]; in the experiment with A2780 ovarian cells [3]) were 631 nM, 708 nM and more than 10000 nM, respectively. In addition, the inhibition at 10 µM in experiment [2] was 92.9%.

For `O=C(C1CC1)N1CC(CN2C(=O)C3(CCCC3)N=C2c2ccc(-c3ccc4[nH]ccc4c3)cc2)C1` [compound 78, 3-{[1-(Cyclopropylcarbonyl)azetidin-3-yl]methyl}-2-[4-(1H-indol-5-yl)phenyl]-1,3-diazaspiro[4.4]non-1-en-4-one], the values for the IC50 with A2780 ovarian cells [1] and in the experiment on A2780 ovarian cells [3] were 148 nM and more than 10000 nM, respectively. In experiment [2], the inhibition at 10 µM is 111%.

As to `CC1(C(=O)N2CC[C@@H](CN3C(=O)C4(CCCC4)N=C3c3ccc(-c4ccc5occc5c4)cc3)C2)CC1` [compound 116, (R)-2-(4-(Benzofuran-5-yl)phenyl)-3-((1-(1-methylcyclopropanecarbonyl)pyrrolidin-3-yl)methyl)-1,3-diazaspiro[4.4]non-1-en-4-one], the IC50 is 35.5 nM with A2780 ovarian cells [1], 28.2 nM in experiment [2] and approximately 3020 nM with A2780 ovarian cells [3]. Moreover, the inhibition at 10 µM in experiment [2] worked out at 121%.

Regarding `O=C(N1CCCC1)N1CC[C@@H](CN2C(=O)C3(CCCC3)N=C2c2ccc(-c3ccc4occc4c3)cc2)C1` [compound 117, 2-[4-(1-Benzofuran-5-yl)phenyl]-3-{[(3S)-1-(pyrrolidin-1-ylcarbonyl)pyrrolidin-3-yl]methyl}-1,3-diazaspiro[4.4]non-1-en-4-one], the IC50 is approximately 2400 nM in the experiment with A2780 ovarian cells [1], 204 nM in experiment [2] and 9120 nM with A2780 ovarian cells [3]. In addition, in experiment [2], the inhibition at 10 µM amounted to 108%.

For `Cn1ccc(C(=O)N2CC[C@@H](CN3C(=O)C4(CCCC4)N=C3c3ccc(-c4ccc5occc5c4)cc3)C2)n1` [compound 118, 2-[4-(1-Benzofuran-5-yl)phenyl]-3-({(3R)-1-[(1-methyl-1H-pyrazol-3-yl)carbonyl]pyrrolidin-3-yl}methyl)-1,3-diazaspiro[4.4]non-1-en-4-one], the IC50 in the experiment with A2780 ovarian cells [1] was 1660 nM; in experiment [2], 355 nM; in the experiment with A2780 ovarian cells [3], more than 10000 nM. Moreover, in experiment [2], the inhibition at 10 µM amounted to 101%.

As to `O=C(CC(F)(F)F)N1CC[C@@H](CN2C(=O)C3(CCCC3)N=C2c2ccc(-c3ccc4occc4c3)cc2)C1` [compound 119, 2-[4-(1-Benzofuran-5-yl)phenyl]-3-{[(3R)-1-(3,3,3-trifluoropropanoyl)pyrrolidin-3-yl]methyl}-1,3-diazaspiro[4.4]non-1-en-4-one], the IC50 is approximately 2240 nM in the experiment with A2780 ovarian cells [1], 174 nM in experiment [2] and 11000 nM with A2780 ovarian cells [3]. For the same compound, the inhibition at 10 µM in experiment [2] was found to be 107%.

In the case of `O=C(C1CC1)N1CC[C@@H](CN2C(=O)C3(CCCC3)N=C2c2ccc(-c3ccc4occc4c3)cc2F)C1` [compound 120, 2-[4-(1-Benzofuran-5-yl)-2-fluorophenyl]-3-{[(3R)-1-(cyclopropylcarbonyl)pyrrolidin-3-yl]methyl}-1,3-diazaspiro[4.4]non-1-en-4-one], the IC50 is approximately 759 nM in the experiment with A2780 ovarian cells [1], 38.9 nM in experiment [2] and 5010 nM in the experiment with A2780 ovarian cells [3]. Also, the inhibition at 10 µM in experiment [2] worked out at 116%.

Regarding `O=C(C1CC1)N1CC[C@@H](CN2C(=O)C3(CCCC3)N=C2c2ccc(-c3ccc(Cl)cc3)cc2F)C1` [compound 121, 2-(4′-Chloro-3-fluorobiphenyl-4-yl)-3-{[(3R)-1-(cyclopropylcarbonyl)pyrrolidin-3-yl]methyl}-1,3-diazaspiro[4.4]non-1-en-4-one], the values for the IC50 (with A2780 ovarian cells [1]; in experiment [2]; with A2780 ovarian cells [3]) were 2190 nM, 91.2 nM and more than 10000 nM, respectively. Moreover, in experiment [2], the inhibition at 10 µM worked out at 115%.

`O=C(C1CC1)N1CC[C@@H](CN2C(=O)C3(CC3)N=C2c2ccc(-c3ccc(-c4cccnc4)cc3)cc2)C1` [compound 122, 6-{[(3R)-1-(Cyclopropylcarbonyl)pyrrolidin-3-yl]methyl}-5-(4′-pyridin-3-ylbiphenyl-4-yl)-4,6-diazaspiro[2.4]hept-4-en-7-one]: the values for the IC50 (in the experiment on A2780 ovarian cells [1]; in experiment [2]; in the experiment with A2780 ovarian cells [3]) were 234 nM, 123 nM and approximately 10000 nM, respectively. Further, the inhibition at 10 µM in experiment [2] amounted to 112%.

For the compound `CN(C)c1ccc(-c2ccc(C3=NC4(CC4)C(=O)N3C[C@@H]3CCN(C(=O)C4CC4)C3)cc2)cc1` [compound 124, 6-{[(3R)-1-(Cyclopropylcarbonyl)pyrrolidin-3-yl]methyl}-5-[4′-(dimethylamino)biphenyl-4-yl]-4,6-diazaspiro[2.4]hept-4-en-7-one], the IC50 is approximately 288 nM with A2780 ovarian cells [1] and more than 10000 nM with A2780 ovarian cells [3]. In addition, the inhibition at 10 µM in experiment [2] came to 113%.

As for `O=C(C1CC1)N1CC[C@@H](CN2C(=O)C3(CC3)N=C2c2ccc(-c3cccc(C(F)(F)F)c3)cc2)C1` [compound 126, 6-{[(3R)-1-(Cyclopropylcarbonyl)pyrrolidin-3-yl]methyl}-5-[3′-(trifluoromethyl)biphenyl-4-yl]-4,6-diazaspiro[2.4]hept-4-en-7-one], the results for the IC50 (with A2780 ovarian cells [1]; in experiment [2]; with A2780 ovarian cells [3]) were more than 10000 nM, 646 nM and more than 10000 nM, respectively. Also, the inhibition at 10 µM in experiment [2] turned out to be 96.3%.

For `Cn1ncc2cc(-c3ccc(C4=NC5(CCN(CCO)CC5)C(=O)N4C[C@@H]4CCN(C(=O)C5CC5)C4)cc3)ccc21` [compound 127, (R)-3-((1-(Cyclopropanecarbonyl)pyrrolidin-3-yl)methyl)-8-(2-hydroxyethyl)-2-(4-(1-methyl-1H-indazol-5-yl)phenyl)-1,3,8-triazaspiro[4.5]dec-1-en-4-one], the IC50 was 933 nM in the experiment on A2780 ovarian cells [1], 490 nM in experiment [2] and 7590 nM with A2780 ovarian cells [3]. For the same compound, in experiment [2], the inhibition at 10 µM was determined as 107%.

With `O=C(C1CC1)N1CC[C@H](CN2C(=O)C3(CC3)N=C2c2ccc(-c3ccc4[nH]ncc4c3)cc2)C1` [compound 431, 6-{[(3S)-1-(Cyclopropylcarbonyl)pyrrolidin-3-yl]methyl}-5-[4-(1H-indazol-5-yl)phenyl]-4,6-diazaspiro[2.4]hept-4-en-7-one], the IC50 is 204 nM with A2780 ovarian cells [1] and more than 10000 nM in the experiment with A2780 ovarian cells [3].

With `Cc1cc(-c2ccc3c(c2)c(C#N)nn3C)ccc1C1=NC2(CC2)C(=O)N1CC1CN(C(=O)C2CC2)C1` [compound 836, 5-(4-(6-((1-(cyclopropanecarbonyl)azetidin-3-yl)methyl)-7-oxo-4,6-diazaspiro[2.4]hept-4-en-5-yl)-3-methylphenyl)-1-methyl-1H-indazole-3-carbonitrile], the IC50 with A2780 ovarian cells [1] was 372 nM; in the experiment on A2780 ovarian cells [3] it was more than 3020 nM.

Turning to `O=C(N1CC(CN2C(=O)C3(CC3)N=C2c2ccc(-c3ccc4c(cnn4CCO)c3)cc2F)C1)C1(O)CC1` [compound 837, 5-(2-fluoro-4-(1-(2-hydroxyethyl)-1H-indazol-5-yl)phenyl)-6-((1-(1-hydroxycyclopropanecarbonyl)azetidin-3-yl)methyl)-4,6-diazaspiro[2.4]hept-4-en-7-one], the figures for the IC50 in the experiment with A2780 ovarian cells [1] and in the experiment with A2780 ovarian cells [3] were 1230 nM and more than 3020 nM, respectively.

As to `O=C(C1CC1)N1CC(CN2C(=O)C3(CC3)N=C2c2ccc(-c3ccc4ccc(=O)[nH]c4c3)cc2)C1` [compound 840], the IC50 in the experiment with A2780 ovarian cells [1] and in the experiment on A2780 ovarian cells [3] was more than 3020 nM each time.

`N#CCCn1cc2cc(-c3ccc(C4=NC5(CC5)C(=O)N4CC4CN(C(=O)C5CC5)C4)cc3)ccc2n1` [compound 842, 3-(5-(4-(6-((1-(cyclopropanecarbonyl)azetidin-3-yl)methyl)-7-oxo-4,6-diazaspiro[2.4]hept-4-en-5-yl)phenyl)-2H-indazol-2-yl)propanenitrile]: the IC50 in the experiment with A2780 ovarian cells [1] and in the experiment with A2780 ovarian cells [3] was more than 3020 nM each time.
